Molecules are shown by their SMILES. Where a name gives a salt, the structure may show the parent alone.

One assay deals with IGROV-1. Kind of assay: MTS Assay, cell proliferation analysis (IGROV-1). The assay is classed as cell-based. The note with it: Homo sapiens; IGROV-1 cells; 72 hours; 10 Percent FBS. As for the experimental part: (§1) Cell proliferation analysis. Cell survival was determined by the MTS assay. Briefly, cells were plated in a 96-well plate at 2,000-10,000 cells per well, cultured for 24 hours in complete growth medium, and then treated with representative compounds of the invention or combinations thereof for 72 hours. MTS was added and incubated for 4 hours, followed by assessment of cell viability by using the microplate reader at 570 nm. Data were normalized to untreated controls and analyzed.

In the next assay the test system is A2780. Briefly: MTS Assay, cell proliferation analysis (A2780). The assay is classed as cell-based. Particulars: Homo sapiens; A2780 cells; 72 hours; 10 Percent FBS. As for the experimental part: as §1
The test system of another assay is AN3-CA. Kind of assay: MTS Assay, cell proliferation analysis (AN3-CA). The format is cell-based. The note with it: Homo sapiens; AN3-CA cells; 72 hours; 10 Percent FBS. As for the experimental part:
as §1

The next assay has as its target AKT1 (Homo sapiens (Human), UniProt P31749). Kind of assay: Inactive Akt Alpha Screen Assay. Particulars: non *labeled: Akt Alpha Screen assay; read-out: AKT1 biochemical assay, IC50. The gist of the method:
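AKT1 activated in situ by PDK1, MAPKAPK2, lipid vesicles and ATP, then phosphorylating biotinylated crosstide for 30 min at room temperature. Stopped with 10 mM EDTA; phosphopeptide detected by AlphaScreen using phospho-AKT substrate antibody (1:350), Protein A acceptor and streptavidin donor beads, 90 min dark, ex 640/em 570 nm.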

Chain of AKT1 (P31749 whole entry): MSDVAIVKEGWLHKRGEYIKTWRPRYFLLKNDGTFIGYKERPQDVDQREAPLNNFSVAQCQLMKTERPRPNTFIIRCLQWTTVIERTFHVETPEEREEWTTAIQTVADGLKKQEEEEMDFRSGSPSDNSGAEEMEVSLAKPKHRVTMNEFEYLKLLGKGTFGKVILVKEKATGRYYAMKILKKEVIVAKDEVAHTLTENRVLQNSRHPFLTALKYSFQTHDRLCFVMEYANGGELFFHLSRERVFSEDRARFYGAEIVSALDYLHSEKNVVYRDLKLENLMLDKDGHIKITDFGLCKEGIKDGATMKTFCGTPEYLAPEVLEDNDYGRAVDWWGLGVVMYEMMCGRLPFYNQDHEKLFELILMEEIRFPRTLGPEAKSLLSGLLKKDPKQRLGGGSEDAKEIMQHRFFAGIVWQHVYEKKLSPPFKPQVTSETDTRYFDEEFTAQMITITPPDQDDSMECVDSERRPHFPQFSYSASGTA

With `CN(C)c1ccc(C(=O)NCc2ccc(-c3nnc4n3-c3cccnc3Nc3ccccc3-4)cc2)cc1` [Example 98, N-(4-(9H-benzo[f]pyrido[2,3-b][1,2,4]triazolo[4,3-d][1,4]diazepin-3-yl)benzyl)-4-(dimethylamino)benzamide], the IC50 was more than 100 µM with IGROV-1, 6 µM with A2780, 8 µM in the assay with AN3-CA and 0.11 µM on AKT1.

As for `ClCc1ccc(-c2nnc3n2-c2cccnc2Nc2ccccc2-3)cc1` [Example 127, 3-(4-(chloromethyl)phenyl)-9H-benzo[f]pyrido[2,3-b][1,2,4]triazolo[4,3-d][1,4]diazepine], the figures for the IC50 in the assay on IGROV-1, in the assay with A2780 and on AKT1 were 13 µM, 9 µM and 1.9 µM, respectively.

For `O=c1[nH]c2ccccc2n1C1CCN(Cc2ccc(-c3nnc4n3-c3ccccc3Nc3ccccc3-4)cc2)CC1` [Example 128, 1-(1-(4-(9H-dibenzo[b,f][1,2,4]triazolo[4,3-d][1,4]diazepin-3-yl)benzyl)piperidin-4-yl)-1H-benzo[d]imidazol-2(3H)-one], the IC50 was more than 100 µM in the assay on IGROV-1, 11 µM in the assay on A2780 and 0.94 µM at AKT1.

With `NC1(c2ccc(-c3nnc4n3-c3cccnc3Nc3ccc(Br)cc3-4)cc2)CCC1` [Example 219, 1-(4-(12-bromo-9H-benzo[f]pyrido[2,3-b][1,2,4]triazolo[4,3-d][1,4]diazepin-3-yl)phenyl)cyclobutanamine], the IC50 in the assay with IGROV-1 amounted to 10 µM; with A2780 it was 16 µM; in the assay on AN3-CA, 45 µM; at AKT1, 0.13 µM.

On to `O=S(=O)(NCc1ccc(-c2nnc3n2-c2cccnc2Nc2ccccc2-3)cc1)c1ccc(F)cc1` [Example 117, N-(4-(9H-benzo[f]pyrido[2,3-b][1,2,4]triazolo[4,3-d][1,4]diazepin-3-yl)benzyl)-4-fluorobenzenesulfonamide], for which the IC50 in the assay on A2780 was found to be 19 µM; in the assay on AN3-CA it was 37 µM; on AKT1, 0.12 µM.

`COc1cccc(C(=O)Nc2ccc(-c3nnc4n3-c3cccnc3Nc3ccccc3-4)cc2)c1` [Example 27, N-(4-(9H-benzo[f]pyrido[2,3-b][1,2,4]triazolo[4,3-d][1,4]diazepin-3-yl)phenyl)-3-methoxybenzamide]: the half-inhibitory concentration (IC50) in the assay on IGROV-1 came to 23 µM; in the assay on A2780, 10 µM; in the assay with AN3-CA, 25 µM; at AKT1 it was 0.16 µM.

As to `O=C(Nc1ccc(-c2nnc3n2-c2cccnc2Nc2ccccc2-3)cc1)c1ccccc1` [Example 59, N-(4-(9H-benzo[f]pyrido[2,3-b][1,2,4]triazolo[4,3-d][1,4]diazepin-3-yl)phenyl)benzamide], the IC50 in the assay on A2780 amounted to 32 µM; with AN3-CA, 28 µM; at AKT1 it was 0.07 µM.

As to `Cc1ccc(NC(=O)NC2CCN(Cc3ccc(-c4nnc5n4-c4cccnc4Nc4ccccc4-5)cc3)CC2)cc1` [Example 168, 1-(1-(4-(9H-benzo[f]pyrido[2,3-b][1,2,4]triazolo[4,3-d][1,4]diazepin-3-yl)benzyl)piperidin-4-yl)-3-(p-tolyl)urea], the IC50 was determined as 15 µM with A2780, 22 µM in the assay on AN3-CA and 0.44 µM on AKT1.

As to `c1ccc2c(c1)Nc1ncccc1-n1c(-c3ccc(CN4CCC(c5c[nH]c6ccccc56)CC4)cc3)nnc1-2` [Example 187, 3-(4-((4-(1H-indol-3-yl)piperidin-1-yl)methyl)phenyl)-9H-benzo[f]pyrido[2,3-b][1,2,4]triazolo[4,3-d][1,4]diazepine], the concentration for half-maximal inhibition (IC50) in the assay on A2780 turned out to be 6 µM; with AN3-CA, 8 µM; at AKT1, 0.5 µM.

Regarding `Brc1ccc2c(c1)-c1nnc(-c3ccc(CN4CCC(c5nnc(-c6ccccn6)[nH]5)CC4)cc3)n1-c1cccnc1N2` [Example 228, 12-bromo-3-(4-((4-(5-(pyridin-2-yl)-4H-1,2,4-triazol-3-yl)piperidin-1-yl)methyl)phenyl)-9H-benzo[f]pyrido[2,3-b][1,2,4]triazolo[4,3-d][1,4]diazepine], the IC50 in the assay with IGROV-1 turned out to be 6 µM; in the assay on A2780, 13 µM; with AN3-CA, 56 µM; at AKT1, 0.096 µM.

For `c1ccc(-c2nnc(C3CCN(Cc4ccc(-c5nnc6n5-c5cccnc5Nc5ccccc5-6)cc4)CC3)[nH]2)nc1` [Example 63, 3-(4-((4-(5-(pyridin-2-yl)-4H-1,2,4-triazol-3-yl)piperidin-1-yl)methyl)phenyl)-9H-benzo[f]pyrido[2,3-b][1,2,4]triazolo[4,3-d][1,4]diazepine], the IC50 in the assay with IGROV-1 was found to be 10 µM; with A2780 it was 17 µM; in the assay with AN3-CA, 34 µM; on AKT1 it was 0.084 µM.

With `O=C(NC1(c2ccc(-c3nnc4n3-c3cccnc3Nc3ccccc3-4)cc2)CCC1)c1ccccc1` [Example 193, N-(1-(4-(9H-benzo[f]pyrido[2,3-b][1,2,4]triazolo[4,3-d][1,4]diazepin-3-yl)phenyl)cyclobutyl)benzamide], the IC50 in the assay with A2780 was found to be 12 µM; in the assay with AN3-CA, 22 µM; at AKT1, 0.073 µM.

Turning to `Cc1ccc(C(=O)Nc2ccc(-c3nnc4n3-c3cccnc3Nc3ccccc3-4)cc2)cc1` [Example 30, N-(4-(9H-benzo[f]pyrido[2,3-b][1,2,4]triazolo[4,3-d][1,4]diazepin-3-yl)phenyl)-4-methylbenzamide], the IC50 with IGROV-1 was 28 µM; in the assay with A2780, 6 µM; in the assay on AN3-CA, 7 µM; on AKT1 it was 0.1 µM.

Consider `O=C(NCCc1cccs1)NC1CCN(Cc2ccc(-c3nnc4n3-c3cccnc3Nc3ccccc3-4)cc2)CC1` [Example 182, 1-(1-(4-(9H-benzo[f]pyrido[2,3-b][1,2,4]triazolo[4,3-d][1,4]diazepin-3-yl)benzyl)piperidin-4-yl)-3-(2-(thiophen-2-yl)ethyl)urea], for which the values for the IC50 with A2780, with AN3-CA and on AKT1 were 10 µM, 28 µM and 0.75 µM, respectively.

Regarding `NC1(c2ccc(-c3nnc4n3-c3cccnc3Nc3ccccc3-4)cc2)CCC1` [Example 126, 1-(4-(9H-benzo[f]pyrido[2,3-b][1,2,4]triazolo[4,3-d][1,4]diazepin-3-yl)phenyl)cyclobutanamine], the IC50 with IGROV-1 worked out at 6 µM; in the assay on A2780, 31 µM; in the assay on AN3-CA, 40 µM; on AKT1, 0.099 µM.

Consider `COc1cccc(S(=O)(=O)NCc2ccc(-c3nnc4n3-c3cccnc3Nc3ccccc3-4)cc2)c1` [Example 114, N-(4-(9H-benzo[f]pyrido[2,3-b][1,2,4]triazolo[4,3-d][1,4]diazepin-3-yl)benzyl)-3-methoxybenzenesulfonamide], for which the IC50 was determined as 16 µM in the assay with A2780, 25 µM in the assay on AN3-CA and 0.14 µM on AKT1.

As to `CN(C)c1ccc(-c2nnc3n2-c2cccnc2Nc2ccccc2-3)cc1` [hydrochloride], the IC50 in the assay with IGROV-1 is 90 µM; in the assay with A2780, 17 µM; on AKT1 it was 1.6 µM.

As for `c1ccc(-n2cc(COCc3ccc(-c4nnc5n4-c4cccnc4Nc4ccccc4-5)cc3)nn2)cc1` [Example 186, 3-(4-(((1-phenyl-1H-1,2,3-triazol-4-yl)methoxy)methyl)phenyl)-9H-benzo[f]pyrido[2,3-b][1,2,4]triazolo[4,3-d][1,4]diazepine], the IC50 came out at 3 µM in the assay on A2780, 4 µM in the assay on AN3-CA and 0.49 µM on AKT1.

Turning to `O=S(=O)(NCc1ccc(-c2nnc3n2-c2cccnc2Nc2ccccc2-3)cc1)c1cccc(Cl)c1` [Example 116, N-(4-(9H-benzo[f]pyrido[2,3-b][1,2,4]triazolo[4,3-d][1,4]diazepin-3-yl)benzyl)-3-chlorobenzenesulfonamide], the values for the IC50 with A2780, with AN3-CA and at AKT1 were 21 µM, 23 µM and 0.15 µM, respectively.

For `O=C(Nc1ccc(-c2nnc3n2-c2cccnc2Nc2ccccc2-3)cc1)c1ccc(F)cc1` [Example 56, N-(4-(9H-benzo[f]pyrido[2,3-b][1,2,4]triazolo[4,3-d][1,4]diazepin-3-yl)phenyl)-4-fluorobenzamide], the IC50 with IGROV-1 is 70 µM; in the assay on A2780, 14 µM; in the assay with AN3-CA, 28 µM; at AKT1 it was 0.11 µM.
